In one assay the target is T1, CDK9/CycT1 (Homo sapiens, UniProt P50750).
T1 construct: Recombinant full-length His-tagged human CDK9 and CycT1; His; purchased Life Technologies PV4131; host or cells: insect cells
Nature of the assay: CDK9/CycT1 high ATP kinase assay (TR-FRET, 2 mM ATP). The note with it: for IC50: 2 mM ATP, Method 1b, lower limit for IC50s about 1-2 nM; for Selectivity high ATP CDK9 over high ATP CDK2: IC50 (high ATP CDK2)/IC50 (high ATP CDK9): ratio from Methods 1b and 2b, minimal values for IC50s near the assay limit. It counts as biochemical. On the procedure:
1b. CDK9/CycT1 High ATP Kinase Assay
CDK9/CycT1-inhibitory activity of compounds of the present invention at a high ATP concentration after preincubation of enzyme and test compounds was quantified employing the CDK9/CycT1 TR-FRET assay as described in the following paragraphs.
Recombinant full-length His-tagged human CDK9 and CycT1, expressed in insect cells and purified by Ni-NTA affinity chromatography, were purchased from Life Technologies (Cat. No PV4131). As substrate for the kinase reaction biotinylated peptide biotin-Ttds-YISPLKSPYKISEG (C-terminus in amide form) was used which can be purchased e.g. form the company JERINI peptide technologies (Berlin, Germany).
(§1) For the assay 50 nl of a 100 fold concentrated solution of the test compound in DMSO was pipetted into either a black low volume 384 well microtiter plate or a black 1536 well microtiter plate (both Greiner Bio-One, Frickenhausen, Germany), 2 μl of a solution of CDK9/CycT1 in aqueous assay buffer [50 mM Tris/HCl pH 8.0, 10 mM MgCl2, 1.0 mM dithiothreitol, 0.1 mM sodium ortho-vanadate, 0.01% (v/v) Nonidet-P40 (Sigma)] were added and the mixture was incubated for 15 min at 22° C. to allow pre-binding of the test compounds to the enzyme before the start of the kinase reaction. […] The concentration of CDK9/CycT1 was adjusted depending of the activity of the enzyme lot and was chosen appropriate to have the assay in the linear range, typical concentrations were in the range of 0.5 μg/ml. The reaction was stopped by the addition of 3 μl of a solution of TR-FRET detection reagents (0.33 μM streptavidine-XL665 [Cisbio Bioassays, Codolet, France] and 1.67 nM anti-RB(pSer807/pSer811)-antibody from BD Pharmingen [#558389] and 2 nM LANCE EU-W1024 labeled anti-mouse IgG antibody [Perkin-Elmer, product no. AD0077]) in an aqueous EDTA-solution (167 mM EDTA, 0.2% (w/v) bovine serum albumin in 100 mM HEPES pH 7.5).
(§2) The resulting mixture was incubated 1 h at 22° C. to allow the formation of complex between the phosphorylated biotinylated peptide and the detection reagents. Subsequently the amount of phosphorylated substrate was evaluated by measurement of the resonance energy transfer from the Eu-chelate to the streptavidine-XL. Therefore, the fluorescence emissions at 620 nm and 665 nm after excitation at 350 nm was measured in a TR-FRET reader, e.g. a Pherastar (BMG Labtechnologies, Offenburg, Germany) or a Viewlux (Perkin-Elmer). The ratio of the emissions at 665 nm and at […] was taken as the measure for the amount of phosphorylated substrate. The data were normalised (enzyme reaction without inhibitor=0% inhibition, all other assay components but no enzyme=100% inhibition).

Another assay concerns the target T2, CDK2/CycE (Homo sapiens, UniProt P24941).
T2 construct: GST; purchased ProQinase GmbH (Freiburg, Germany); host or cells: insect cells (Sf9)
Nature of the assay: CDK2/CycE high ATP kinase assay (TR-FRET, 2 mM ATP). In kind it is biochemical. Particulars: Method 2b. On the procedure: 2b. CDK2/CycE High ATP Kinase Assay
CDK2/CycE-inhibitory activity of compounds of the present invention at 2 mM adenosine-tri-phosphate (ATP) was quantified employing the CDK2/CycE TR-FRET (TR-FRET=Time Resolved Fluorescence Energy Transfer) assay as described in the following paragraphs.
Recombinant fusion proteins of GST and human CDK2 and of GST and human CycE, expressed in insect cells (Sf9) and purified by Glutathion-Sepharose affinity chromatography, were purchase from ProQinase GmbH (Freiburg, Germany). As substrate for the kinase reaction biotinylated peptide biotin-Ttds-YISPLKSPYKISEG (C-terminus in amid form) was used which can be purchased e.g. form the company JERINI peptide technologies (Berlin, Germany).
as §1, with “CDK2/CycE” for “CDK9/CycT1”, “about 10 ng/ml.” for “in the range of 0.5 μg/ml.”, “(0.333” for “(0.33”, “AD0077, as an alternative a Terbium-cryptate-labeled anti-mouse IgG antibody from Cisbio Bioassays can be used])” for “AD0077])”
as §2

T1 sequence (P50750 whole entry): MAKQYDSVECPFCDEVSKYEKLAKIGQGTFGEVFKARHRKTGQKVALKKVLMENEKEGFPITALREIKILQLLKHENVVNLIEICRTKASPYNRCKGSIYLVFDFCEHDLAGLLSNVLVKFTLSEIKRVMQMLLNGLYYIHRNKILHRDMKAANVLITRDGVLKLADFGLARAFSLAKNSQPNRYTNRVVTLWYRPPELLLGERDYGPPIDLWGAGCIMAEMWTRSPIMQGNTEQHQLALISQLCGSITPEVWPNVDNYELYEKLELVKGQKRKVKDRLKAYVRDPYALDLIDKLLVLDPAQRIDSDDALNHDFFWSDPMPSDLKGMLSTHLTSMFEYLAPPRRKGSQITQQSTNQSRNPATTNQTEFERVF
T1 sequence (O60563 whole entry partner): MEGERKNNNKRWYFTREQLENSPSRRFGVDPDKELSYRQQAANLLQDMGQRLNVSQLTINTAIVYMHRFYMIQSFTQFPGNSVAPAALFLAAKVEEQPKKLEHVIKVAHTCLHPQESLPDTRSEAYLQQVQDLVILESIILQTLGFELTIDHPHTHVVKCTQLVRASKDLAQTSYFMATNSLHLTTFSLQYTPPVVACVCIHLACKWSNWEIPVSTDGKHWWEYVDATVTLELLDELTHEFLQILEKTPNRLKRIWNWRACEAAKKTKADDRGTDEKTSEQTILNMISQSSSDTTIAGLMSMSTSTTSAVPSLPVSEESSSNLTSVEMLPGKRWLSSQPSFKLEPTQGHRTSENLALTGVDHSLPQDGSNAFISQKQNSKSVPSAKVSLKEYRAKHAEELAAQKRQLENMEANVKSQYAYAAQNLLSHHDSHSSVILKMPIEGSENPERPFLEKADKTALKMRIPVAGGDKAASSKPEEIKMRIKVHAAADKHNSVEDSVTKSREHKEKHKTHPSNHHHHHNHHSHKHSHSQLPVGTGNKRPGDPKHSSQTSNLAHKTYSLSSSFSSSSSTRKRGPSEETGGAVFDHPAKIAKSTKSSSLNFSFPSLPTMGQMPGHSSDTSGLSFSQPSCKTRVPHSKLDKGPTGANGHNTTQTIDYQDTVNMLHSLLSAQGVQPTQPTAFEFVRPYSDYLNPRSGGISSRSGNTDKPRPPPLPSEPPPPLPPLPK

For the molecule `CSCc1cc2nc(c1)OC(C)CCCCCOc1cc(ccc1F)-c1cc(ncc1F)N2` (single isomer, unassigned) [Example 25, 3,22-difluoro-14-methyl-10-[(methylsulfanyl)methyl]-13,20-dioxa-5,7,26-triazatetracyclo[19.3.1.1^2,6.1^8,12]heptacosa-1(25),2(27),3,5,8(26),9,11,21,23-nonaene], the figures for the IC50 at CDK9/CycT1 and against CDK2/CycE were 93 nM and greater than 20000 nM, respectively. The “Selectivity high ATP CDK9 over high ATP CDK2: IC50 (high ATP CDK2)/IC50 (high ATP CDK9)” value (“Selectivity high ATP CDK9” below) on CDK9/CycT1 is reported as greater than 215.

`CSCc1cc2nc(c1)OC(C)CCCCCOc1cc(ccc1F)-c1cc(ncc1F)N2` (racemic) [Example 23, (rac)-3,22-difluoro-14-methyl-10-[(methylsulfanyl)methyl]-13,20-dioxa-5,7,26-triazatetracyclo[19.3.1.1^2,6.1^8,12]heptacosa-1(25),2(27),3,5,8(26),9,11,21,23-nonaene]: at CDK9/CycT1, the IC50 was 67 nM and the “Selectivity high ATP CDK9” value is listed as greater than 298. At CDK2/CycE, this molecule came in with an IC50 greater than 20000 nM.

As for `CSCc1cc2nc(c1)OC(C)CCCOc1cc(ccc1F)-c1cc(ncc1F)N2` (single isomer, unassigned) [Example 13, 3,20-difluoro-14-methyl-10-[(methylsulfanyl)methyl]-13,18-dioxa-5,7,24-triazatetracyclo[17.3.1.1^2,6.1^8,12]pentacosa-1(23),2(25),3,5,8(24),9,11,19,21-nonaene], on CDK9/CycT1, the IC50 worked out at 4 nM and the “Selectivity high ATP CDK9” value amounted to 178. In addition, half-maximal inhibition against CDK2/CycE (IC50) was put at 711 nM.

Regarding `CSCc1cc2nc(c1)OC(C)CCCCOc1cc(ccc1F)-c1cc(ncc1F)N2` (single isomer, unassigned) [Example 20, 3,21-difluoro-14-methyl-10-[(methylsulfanyl)methyl]-13,19-dioxa-5,7,25-triazatetracyclo[18.3.1.1^2,6.1^8,12]hexacosa-1(24),2(26),3,5,8(25),9,11,20,22-nonaene], at CDK9/CycT1, the IC50 was 23 nM and the “Selectivity high ATP CDK9” value came out at 548. This molecule displayed an IC50 against CDK2/CycE of 12600 nM.

On to `CSCc1cc2nc(c1)OC(C)CCCCOc1cc(ccc1F)-c1cc(ncc1F)N2` (racemic) [Example 18, (rac)-3,21-difluoro-14-methyl-10-[(methylsulfanyl)methyl]-13,19-dioxa-5,7,25-triazatetracyclo[18.3.1.1^2,6.1^8,12]hexacosa-1(24),2(26),3,5,8(25),9,11,20,22-nonaene], for which the values for the IC50 on CDK9/CycT1 and against CDK2/CycE were 32 nM and greater than 20000 nM, respectively. Besides, at CDK9/CycT1, the “Selectivity high ATP CDK9” value was greater than 625.

Take `CSCc1cc2nc(c1)OC(C)CCCCOc1cc(ccc1F)-c1cc(ncc1F)N2` (single isomer, unassigned) [Example 19, 3,21-difluoro-14-methyl-10-[(methylsulfanyl)methyl]-13,19-dioxa-5,7,25-triazatetracyclo[18.3.1.1^2,6.1^8,12]hexacosa-1(24),2(26),3,5,8(25),9,11,20,22-nonaene]: the IC50 against CDK9/CycT1 was 138 nM; on CDK2/CycE, greater than 20000 nM. The “Selectivity high ATP CDK9” value on CDK9/CycT1 is on record as greater than 145.

On to `CSCc1cc2nc(c1)OC(C)CCCOc1cc(ccc1F)-c1cc(ncc1F)N2` (single isomer, unassigned) [Example 12, 3,20-difluoro-14-methyl-10-[(methylsulfanyl)methyl]-13,18-dioxa-5,7,24-triazatetracyclo[17.3.1.1^2,6.1^8,12]pentacosa-1(23),2(25),3,5,8(24),9,11,19,21-nonaene], for which, at CDK9/CycT1, half-maximal inhibition (IC50) required 4 nM and the “Selectivity high ATP CDK9” value came out at 1613. The midpoint of inhibition against CDK2/CycE, the IC50, lay at 6450 nM.

Consider `CSCc1cc2nc(c1)OC(C)CCCCCOc1cc(ccc1F)-c1cc(ncc1F)N2` (single isomer, unassigned) [Example 24, 3,22-difluoro-14-methyl-10-[(methylsulfanyl)methyl]-13,20-dioxa-5,7,26-triazatetracyclo[19.3.1.1^2,6.1^8,12]heptacosa-1(25),2(27),3,5,8(26),9,11,21,23-nonaene], for which, on CDK9/CycT1, the IC50 stood at 68 nM and the “Selectivity high ATP CDK9” value is greater than 294. The molecule further yielded an IC50 at CDK2/CycE greater than 20000 nM.
